Experiments:
[1] = biological target: T1, y-mtRNAP–Mtf1 (ΔN100 y-mtRNAP with Mtf1) (Saccharomyces cerevisiae, UniProt P13433); assay: cryo-EM structure (IC2, […] Å); type: binding; conditions: pre-melted 33-bp bubble promoter DNA; Mg2+; pH 7.0; 4 °C; two GTP at +1 (P site) and +2 (N site) of polymerase active site
T1 construct: gene RPO41; RPO41 lacking 100 N-terminal residues, His6 tag removed by TEV; Mtf1 His6-tagged (removal not described); both from E. coli; complex assembled on pre-melted promoter DNA; with Mitochondrial transcription factor 1
T1 sequence (P13433 101-1351): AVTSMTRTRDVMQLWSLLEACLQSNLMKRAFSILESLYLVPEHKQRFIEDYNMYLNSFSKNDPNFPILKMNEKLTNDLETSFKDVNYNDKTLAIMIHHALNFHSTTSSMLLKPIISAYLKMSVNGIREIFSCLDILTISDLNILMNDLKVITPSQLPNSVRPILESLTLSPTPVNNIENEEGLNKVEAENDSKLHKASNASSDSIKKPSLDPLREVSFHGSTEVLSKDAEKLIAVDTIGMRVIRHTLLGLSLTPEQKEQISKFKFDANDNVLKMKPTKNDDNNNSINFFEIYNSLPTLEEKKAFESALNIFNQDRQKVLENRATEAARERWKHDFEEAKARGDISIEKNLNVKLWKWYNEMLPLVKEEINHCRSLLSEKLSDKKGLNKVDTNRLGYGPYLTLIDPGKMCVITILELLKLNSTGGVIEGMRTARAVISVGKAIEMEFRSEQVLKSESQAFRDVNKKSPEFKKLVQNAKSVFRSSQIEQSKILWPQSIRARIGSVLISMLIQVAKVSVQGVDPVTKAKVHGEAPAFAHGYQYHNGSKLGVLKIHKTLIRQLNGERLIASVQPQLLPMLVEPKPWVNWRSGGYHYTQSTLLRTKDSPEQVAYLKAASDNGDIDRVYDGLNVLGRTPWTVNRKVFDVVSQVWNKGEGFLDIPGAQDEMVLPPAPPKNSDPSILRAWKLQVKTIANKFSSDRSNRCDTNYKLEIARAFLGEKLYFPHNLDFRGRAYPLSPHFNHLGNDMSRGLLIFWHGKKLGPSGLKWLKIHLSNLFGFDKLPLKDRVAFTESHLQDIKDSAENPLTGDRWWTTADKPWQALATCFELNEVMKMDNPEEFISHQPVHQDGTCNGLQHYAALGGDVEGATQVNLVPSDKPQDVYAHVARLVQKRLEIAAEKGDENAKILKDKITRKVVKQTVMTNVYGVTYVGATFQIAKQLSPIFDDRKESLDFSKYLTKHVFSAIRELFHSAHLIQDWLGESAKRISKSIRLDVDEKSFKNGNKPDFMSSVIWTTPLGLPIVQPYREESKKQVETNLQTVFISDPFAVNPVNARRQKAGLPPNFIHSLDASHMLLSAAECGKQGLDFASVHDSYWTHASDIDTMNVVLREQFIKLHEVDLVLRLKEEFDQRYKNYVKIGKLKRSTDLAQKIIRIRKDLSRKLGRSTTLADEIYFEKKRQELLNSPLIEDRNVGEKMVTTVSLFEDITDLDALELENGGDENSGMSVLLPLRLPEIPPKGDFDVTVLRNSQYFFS
T1 sequence (P14908 2-341 partner): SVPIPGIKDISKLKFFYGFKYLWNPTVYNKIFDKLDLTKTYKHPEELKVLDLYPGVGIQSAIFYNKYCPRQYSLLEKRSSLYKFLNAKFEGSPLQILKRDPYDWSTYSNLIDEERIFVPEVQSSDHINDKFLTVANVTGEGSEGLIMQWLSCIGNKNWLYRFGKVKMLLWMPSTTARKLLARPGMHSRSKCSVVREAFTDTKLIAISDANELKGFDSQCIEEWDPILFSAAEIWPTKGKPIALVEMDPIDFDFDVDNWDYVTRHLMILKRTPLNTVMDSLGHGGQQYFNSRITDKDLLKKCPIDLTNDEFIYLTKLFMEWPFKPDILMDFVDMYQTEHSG

[2] = biological target: T2, ΔN100 y-mtRNAP (yeast mitochondrial RNA polymerase, Rpo41, 100 amino-terminal residues deleted) (S. cerevisiae, UniProt P13433 101-1351); assay: cryo-EM structure; PmIC of ΔN100 y-mtRNAP, Mtf1 and pre-melted bubble promoter DNA (molar ratio 1:1.2:1.2, 2 h, 4 °C), purified by SEC, then incubated with NTPs or pppGpG 2 h at 4 °C to give IC2, IC4-IC8 and IC8'; 50 mM Bis-tris propane pH 7.0, 100 mM NaCl, 5 mM MgCl2, 1 mM EDTA, 2 mM DTT; conditions: both partners purified
T2 construct: S. cerevisiae mitochondrial RNA polymerase Rpo41 (y-mtRNAP), UniProt P13433; 100 amino-terminal residues deleted; end residue S1351; Plasmid ProEXHTB; In the structures the chain is traced only from I386 (A407 in IC4) to S1351 with gaps; source: E. coli BL21 RIL Codon Plus, purified (DEAE/Ni-Sepharose, heparin, TEV cleavage, second Ni-Sepharose flow-through)
T2 sequence (looked up): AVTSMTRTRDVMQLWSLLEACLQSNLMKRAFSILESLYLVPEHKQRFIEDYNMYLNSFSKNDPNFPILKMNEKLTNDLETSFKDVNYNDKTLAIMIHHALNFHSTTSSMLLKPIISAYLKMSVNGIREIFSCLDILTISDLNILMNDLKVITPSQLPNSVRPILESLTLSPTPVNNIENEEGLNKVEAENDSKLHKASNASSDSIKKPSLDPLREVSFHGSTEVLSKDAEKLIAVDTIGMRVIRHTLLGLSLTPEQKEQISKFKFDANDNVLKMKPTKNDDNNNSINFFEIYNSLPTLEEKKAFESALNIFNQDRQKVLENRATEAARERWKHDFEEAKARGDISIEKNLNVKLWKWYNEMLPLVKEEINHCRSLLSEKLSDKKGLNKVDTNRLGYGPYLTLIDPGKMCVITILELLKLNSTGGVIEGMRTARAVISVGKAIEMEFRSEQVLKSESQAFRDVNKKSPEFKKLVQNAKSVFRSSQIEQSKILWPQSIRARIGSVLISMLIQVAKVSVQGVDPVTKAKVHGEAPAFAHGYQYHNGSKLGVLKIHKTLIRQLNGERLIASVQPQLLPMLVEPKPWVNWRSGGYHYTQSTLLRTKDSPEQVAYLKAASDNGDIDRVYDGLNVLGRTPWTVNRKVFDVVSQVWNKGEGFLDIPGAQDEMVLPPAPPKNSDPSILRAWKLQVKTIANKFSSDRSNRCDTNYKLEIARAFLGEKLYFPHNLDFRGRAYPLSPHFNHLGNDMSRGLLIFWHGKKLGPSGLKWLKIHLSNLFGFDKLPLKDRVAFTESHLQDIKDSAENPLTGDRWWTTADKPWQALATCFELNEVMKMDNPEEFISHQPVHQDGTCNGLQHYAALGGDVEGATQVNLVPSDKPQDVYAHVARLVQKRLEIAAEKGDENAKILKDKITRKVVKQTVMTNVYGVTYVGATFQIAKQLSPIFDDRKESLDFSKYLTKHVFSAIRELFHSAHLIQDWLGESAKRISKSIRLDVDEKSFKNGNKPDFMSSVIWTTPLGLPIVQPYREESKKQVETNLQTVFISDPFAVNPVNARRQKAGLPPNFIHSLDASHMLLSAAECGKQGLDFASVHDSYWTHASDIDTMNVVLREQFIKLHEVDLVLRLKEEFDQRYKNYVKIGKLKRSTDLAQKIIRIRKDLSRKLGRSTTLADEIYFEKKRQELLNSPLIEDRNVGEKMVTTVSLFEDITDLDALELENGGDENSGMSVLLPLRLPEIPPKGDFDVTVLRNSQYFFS

Row | Molecule | cryo-EM structure (IC2, 3.47 Å) [1] | binding result [2]
1 | Nc1nc2c(ncn2[C@@H]2O[C@H](COP(=O)(O)OP(=O)(O)OP(=O)(O)O)[C@@H](O)[C@H]2O)c(=O)[nH]1 [GTP] | IC2 was captured with two GTP molecules bound at the transcription start site poised for catalysis | 
2 | Mtf1 (yeast mitochondrial transcription factor) (natural protein, S. cerevisiae, S. cerevisiae Mtf1, mitochondrial transcription factor; wild type; traced in the structures from S2 to at most G341 (end residue); Plasmid pTrcHisC; No removal of the His6 tag is described; N-terminal domain residues 1-252, C-terminal domain residues 255-341 are named, so the whole protein is likely; source: E. coli BL21, purified (DEAE/Ni-Sepharose, heparin-Sepharose)) SVPIPGIKDISKLKFFYGFKYLWNPTVYNKIFDKLDLTKTYKHPEELKVLDLYPGVGIQSAIFYNKYCPRQYSLLEKRSSLYKFLNAKFEGSPLQILKRDPYDWSTYSNLIDEERIFVPEVQSSDHINDKFLTVANVTGEGSEGLIMQWLSCIGNKNWLYRFGKVKMLLWMPSTTARKLLARPGMHSRSKCSVVREAFTDTKLIAISDANELKGFDSQCIEEWDPILFSAAEIWPTKGKPIALVEMDPIDFDFDVDNWDYVTRHLMILKRTPLNTVMDSLGHGGQQYFNSRITDKDLLKKCPIDLTNDEFIYLTKLFMEWPFKPDILMDFVDMYQTEHSG |  | binds

— publication PMC10600007, “Structures illustrate step-by-step mitochondrial transcription initiation” (Nature, 2023)
